Like-named read-outs stand apart in the source and are kept apart here.
Assays:
advanced NSCLC = assay: open-label predictive marker identification Phase II study of Tarceva monotherapy; assay type: in vivo, human; conditions: 264 enrolled patients, 150 mg/day oral
Procedure: Based on the experience from the BR.21 study, benefiting population was defined as either having objective response, or disease stabilization for ≧12 weeks. Clinical and microarray datasets were analyzed according to a pre-defined statistical plan.
The selection of this dose was based on pharmacokinetic parameters, as well as the safety and tolerability profile of this dose observed in Phase I, II and III trials in heavily pre-treated patients with advanced cancer. Drug levels seen in the plasma of patients with cancer receiving the 150 mg/day dose were consistently above the average plasma concentration of 500 ng/ml targeted for clinical efficacy.
This was an open-label, predictive marker identification Phase II study. The study was conducted in approximately 26 sites in about 12 countries. 264 patients with advanced NSCLC following failure of at least one prior chemotherapy regimen were enrolled over a 12 month period. […] Dose reductions were permitted based on tolerability to drug therapy. Clinical and laboratory parameters were assessed to evaluate disease control and toxicity. Treatment continued until disease progression, unacceptable toxicity or death.
The RECIST (Uni-dimensional Tumour Measurement) criteria were used to evaluate response. […]
A regular status check every 3 months was performed either by a patient's visit to the clinic or by telephone. All deaths were recorded. […]

NSCLC [1] = conditions: single agent, patients for whom standard therapy for advanced disease has failed, versus placebo; cited from earlier work
[2] = patients with cancer, 150 mg/day dose; compared with average plasma concentration targeted for clinical efficacy; cited from earlier work
NSCLC [3] = conditions: cited from earlier work
NSCLC [4] = conditions: second line therapy of NSCLC; cited from earlier work

For `C#Cc1cccc(Nc2ncnc3cc(OCCOC)c(OCCOC)cc23)c1` [Erlotinib], the median overall survival (advanced NSCLC) is given as 7.6 (CI 7-9) months, the median progression-free survival (advanced NSCLC) is given as 11.3 (CI 8-12) weeks and the “survival of NSCLC patients” value (NSCLC [1]) is given as “significantly prolongs and improves the survival”. The “drug levels in plasma” value [2] was greater than 500 ng/mL.
For `CC(=O)O[C@@]12CO[C@@H]1C[C@H](O)[C@@]1(C)C(=O)[C@H](O)C3=C(C)[C@@H](OC(=O)[C@H](O)[C@@H](NC(=O)OC(C)(C)C)c4ccccc4)C[C@@](O)([C@@H](OC(=O)c4ccccc4)[C@H]21)C3(C)C` [docetaxel], the survival (NSCLC [3]; second line after cisplatin-based first-line regimens failed, all ages, ECOG performance status 0, 1 or 2) is listed as “improved survival” and the survival (NSCLC [3]; third-line treatment or beyond) is listed as “no prolongation of survival”.
In the case of `Nc1nc2[nH]cc(CCc3ccc(C(=O)N[C@@H](CCC(=O)O)C(=O)O)cc3)c2c(=O)[nH]1` [pemetrexed], the “efficacy compared with docetaxel” value (NSCLC [4]) is listed as “clinically equivalent efficacy” and the “side effects compared with docetaxel” value (NSCLC [4]) is listed as “significantly fewer side effects”.
